Test results reported in US20140023611A1 (priority 2010, published 2014).
Several values for one entry are separate records, joined by “and”; a condition that tells them apart may be missing. Identical values can stand only once.

Tests used:
rat NaP2b (SLC34A2) = target: T1, rat NaP2b (SLC34A2) (Rattus norvegicus, UniProt Q9JJ09); assay: Inhibition of NaP2b-mediated Pi (33P) uptake in transfected HEK293 cells, rat NaP2b; assay type: cell-based; conditions: 33P Pi uptake, 0.1 mM phosphate, value given as pIC50 range
T1 construct: host or cells: HEK293
T1 sequence (Q9JJ09 1-695): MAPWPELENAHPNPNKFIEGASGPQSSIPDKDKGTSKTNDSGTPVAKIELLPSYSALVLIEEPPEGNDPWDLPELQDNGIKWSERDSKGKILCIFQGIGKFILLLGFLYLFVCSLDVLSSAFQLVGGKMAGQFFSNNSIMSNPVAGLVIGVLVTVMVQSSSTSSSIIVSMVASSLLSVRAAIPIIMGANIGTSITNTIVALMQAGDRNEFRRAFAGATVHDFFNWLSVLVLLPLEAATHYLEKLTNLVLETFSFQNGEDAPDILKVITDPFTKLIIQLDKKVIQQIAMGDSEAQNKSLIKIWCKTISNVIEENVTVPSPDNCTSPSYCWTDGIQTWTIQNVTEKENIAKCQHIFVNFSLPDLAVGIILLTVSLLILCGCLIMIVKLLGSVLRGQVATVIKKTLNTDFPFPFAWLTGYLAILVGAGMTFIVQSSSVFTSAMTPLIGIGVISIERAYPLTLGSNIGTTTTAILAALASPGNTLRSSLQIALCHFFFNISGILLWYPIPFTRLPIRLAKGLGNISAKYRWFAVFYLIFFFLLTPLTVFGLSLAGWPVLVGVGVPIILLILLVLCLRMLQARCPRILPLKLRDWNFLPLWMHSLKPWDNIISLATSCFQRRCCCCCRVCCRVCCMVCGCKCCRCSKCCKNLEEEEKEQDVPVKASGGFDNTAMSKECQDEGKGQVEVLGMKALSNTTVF
Summary of the method: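 The cells transiently expressed NaP2b after Lipofectamine transfection. Each compound was run in duplicate over twelve concentrations, 0.1 nM–30 uM.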

[1] = Stability of compounds in simulated gastric fluid (SGF); assay type: in vitro ADME; conditions: simulated gastric fluid (3 mg/mL pepsin), incubation time 6 hr, relative to t=0
Summary of the method: (§1)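 Compounds at […] were incubated 3 or 6 hr in USP simulated gastric fluid with 3 mg/mL pepsin or simulated intestinal fluid with 3 mg/mL pancreatin. Remaining compound was quantified by HPLC-UV or HPLC-MS peak area % and reported as percent of the t=0 level in the same medium.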

[2] = Stability of compounds in simulated intestinal fluid (SIF); assay type: in vitro ADME; conditions: simulated intestinal fluid (3 mg/mL pancreatin), incubation time 6 hr, relative to t=0
Summary of the method: as §1

[3] = Fecal recovery of orally administered compounds; assay type: in vivo, Sprague-Dawley rats; conditions: Structure (I) examples, Table 16; rat, oral gavage, feces collected until 48 hr after dosing
Source text: (§2) The animals were kept in metabolic cages and feces were collected from the time of dosing until 48 hr after dosing. Upon collection, feces were dried by lyophilization and ground to a visually homogenous powder. Duplicate samples of ground feces from each individual animal were weighed out and extracted using organic solvent. […] Extraction conditions were not optimized for individual compounds, and thus may represent a minimal level of recovery.
as §2, with “collection, feces was dried by” for “collection, feces were dried by”
as §2, with “collection, feces was dried by” for “collection, feces were dried by”
The animals were kept in metabolic cages and feces were collected from the time of dosing until 48 hr after dosing. Upon collection, feces was dried by lyophilization and ground to a visually homogenous powder. Duplicate samples of ground feces from each individual animal were weighed out and extracted using organic solvent.

[4] = test system: Uptake of Phosphorus from the Intestine; assay: In vivo co-dosing in chow (urine P out / P consumed); conditions: Rattus norvegicus, feed or water, rats, compound in chow, read-out: Mean % inhibition Urine Pout/P consumed; for inhibition in vivo at 100 mg/kg/day: mean drug dose 100 mg/kg/day; for inhibition in vivo at 50 mg/kg/day: mean drug dose 50 mg/kg/day
Summary of the method: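 Male 7-week-old rats were fed a synthetic diet (0.6% P, 0.6% Ca) for 4 days, then housed in metabolic cages with compound in chow at 1.3 mg/g (nominal 100 mg/kg/day). Urinary P was measured by ion chromatography over 24–96 h and related to dietary P consumed. Percentage inhibition was calculated against no-drug controls.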

Compound: O=C(O)c1cccc(SCc2cccc(C(=O)Nc3ccc(N4CCCCC4)cc3-c3cc(C(=O)NCc4cccc(C(F)(F)F)c4)ccn3)c2)c1 [Example 8.1, 3-(3-(4-(piperidin-1-yl)-2-(4-(3-(trifluoromethyl)benzylcarbamoyl)pyridin-2-yl)phenylcarbamoyl)benzylthio)benzoic acid]
- IC50 (rat NaP2b (SLC34A2)): 10000 to 31600 nM and < 1000 nM
- % remaining, SGF [1]: 60-80%
- % remaining, SIF [2]: >80%
- % recovered in feces [3]: <20%

Compound: O=C(NCc1cccc(C(F)(F)F)c1)c1ccnc(-c2cc(N3CCCCC3)ccc2NC(=O)c2cccc(CSc3ccc(C(=O)O)c(Br)c3)c2)c1 [Example 8.21]
- IC50 (rat NaP2b (SLC34A2)): 1000 to 7940 nM
- % remaining, SGF [1]: >80%
- % remaining, SIF [2]: >80%
- % recovered in feces [3]: >80%

Compound: CN(CCN1CCOCC1)C(=O)c1cccc(C(=O)Nc2ccc(N3CCCCC3)cc2-c2cc(C(=O)NCc3cccc(C(F)(F)F)c3)ccn2)c1 [Example 80, N1-Methyl-N1-(2-morpholinoethyl)-N3-(4-(piperidin-1-yl)-2-(4-((3-(trifluoromethyl)benzyl)carbamoyl)pyridin-2-yl)phenyl)isophthalamide]
- IC50 (rat NaP2b (SLC34A2)): 1000 to 7940 nM
- % recovered in feces [3]: 20-80%

Compound: CN(CCOCCOCCOCCC(=O)O)C(=O)Cc1cccc(SCc2cccc(C(=O)Nc3ccc(N4CCCCC4)cc3-c3cc(C(=O)NCc4cccc(C(F)(F)F)c4)ccn3)c2)c1 [Example 138]
- IC50 (rat NaP2b (SLC34A2)): 1000 to 7940 nM
- % remaining, SGF [1]: >80%
- % remaining, SIF [2]: 40-60%
- % recovered in feces [3]: <20%

Compound: O=C(O)CCOCCOCCOCCOCCSCc1cccc(C(=O)Nc2ccc(N3CCCCC3)cc2-c2cc(C(=O)N[C@H]3CCCc4ccccc43)ccn2)c1 [Example 142, 1-(3-{[4-(piperidin-1-yl)-2-(4-{[(1S)-1,2,3,4-tetrahydronaphthalen-1-yl]carbamoyl}pyridin-2-yl)phenyl]carbamoyl}phenyl)-5,8,11,14-tetraoxa-2-thiaheptadecan-17-oic acid]
- IC50 (rat NaP2b (SLC34A2)): < 1000 nM
- inhibition in vivo at 100 mg/kg/day [4]: ≤ 10%
- % remaining, SGF [1]: >80%
- % remaining, SIF [2]: >80%

Compound: CCN(CC)c1ccc(NC(=O)c2cccc(CSc3cccc(CC(=O)N(C)CCOCCOCCOCCC(=O)O)c3)c2)c(-c2cc(C(=O)NCc3cccc(C(F)(F)F)c3)ccn2)c1 [Example 144, 3-(2-(2-(2-(2-(3-(3-(4-(diethylamino)-2-(4-(3-(trifluoromethyl)benzylcarbamoyl)pyridin-2-yl)phenylcarbamoyl)benzylthio)phenyl)-N-methylacetamido)ethoxy)ethoxy)ethoxy)propanoic acid]
- IC50 (rat NaP2b (SLC34A2)): < 1000 nM
- inhibition in vivo at 100 mg/kg/day [4]: ≤ 10%
- % remaining, SGF [1]: >80%
- % remaining, SIF [2]: >80%

Compound: CCN(CC)c1ccc(NC(=O)c2cccc(CSCCOCCOCCOCCOCCOCCOCCOCCOCCC(=O)O)c2)c(-c2cc(C(=O)N[C@H]3CCCc4ccccc43)ccn2)c1 [Example 161, (S)-1-(3-(4-(diethylamino)-2-(4-(1,2,3,4-tetrahydronaphthalen-1-ylcarbamoyl)pyridin-2-yl)phenylcarbamoyl)phenyl)-5,8,11,14,17,20,23,26-octaoxa-2-thianonacosan-29-oic acid]
- IC50 (rat NaP2b (SLC34A2)): 1000 to 7940 nM
- inhibition in vivo at 120 mg/kg/day ([4]; mean drug dose 120 mg/kg/day): ≤ 10%
- % remaining, SGF [1]: >80%
- % remaining, SIF [2]: >80%
- % recovered in feces [3]: >80%

Compound: CCN(CC)c1ccc(NC(=O)c2cccc(CSCCOCCOCCOCCOCCC(=O)O)c2)c(-c2cc(C(=O)NCc3cccc(C(F)(F)F)c3)ccn2)c1 [Example 162, 1-(3-(4-(diethylamino)-2-(4-(3-(trifluoromethyl)benzylcarbamoyl)pyridin-2-yl)phenylcarbamoyl)phenyl)-5,8,11,14-tetraoxa-2-thiaheptadecan-17-oic acid]
- IC50 (rat NaP2b (SLC34A2)): < 1000 nM
- inhibition in vivo at 100 mg/kg/day [4]: 10 to 30%
- % remaining, SGF [1]: >80%
- % remaining, SIF [2]: >80%
- % recovered in feces [3]: 20-80%

Compound: CCN(CC)c1ccc(NC(=O)c2cccc(C(=O)N(C)CCOCCOCCOCCC(=O)O)c2)c(-c2cc(C(=O)NCc3cccc(C(F)(F)F)c3)ccn2)c1 [Example 188, 1-(3-((4-(diethylamino)-2-(4-((3-(trifluoromethyl)benzyl)carbamoyl)pyridin-2-yl)phenyl)carbamoyl)phenyl)-2-methyl-1-oxo-5,8,11-trioxa-2-azatetradecan-14-oic acid]
- IC50 (rat NaP2b (SLC34A2)): 1000 to 7940 nM
- inhibition in vivo at 110 mg/kg/day ([4]; mean drug dose 110 mg/kg/day): 10 to 30%

Compound: O=C(O)CCOCCOCCOCCOCCCc1cccc(C(=O)Nc2ccc(N3CCCCC3)cc2-c2cc(C(=O)N[C@H]3CCCc4ccccc43)ccn2)c1 [Example 252, 3-(2-(2-(2-(3-(3-((2-(4-(((S)-1,2,3,4-tetrahydronaphthalen-1-yl)carbamoyl)pyridin-2-yl)-4-(piperidin-1-yl)phenyl)carbamoyl)phenyl)propoxy)ethoxy)ethoxy)ethoxy)propanoic acid]
- IC50 (rat NaP2b (SLC34A2)): < 1000 nM
- inhibition in vivo at 90 mg/kg/day ([4]; mean drug dose 90 mg/kg/day): 10 to 30%
- % remaining, SGF [1]: >80%
- % remaining, SIF [2]: >80%

Compound: CCN(CC)c1ccc(NC(=O)c2cccc(CCCOCCOCCOCCOCCNS(=O)(=O)c3ccc(C(=O)N(CCOC)CCOCCOCCOCCOCCOCCOCCOC)cc3)c2)c(-c2cc(C(=O)NCc3cccc(C(F)(F)F)c3)ccn2)c1 [Example 272, 2-(2-(3-(1-(4-(2,5,8,11,14,17,20-heptaoxadocosan-22-yl(2-methoxyethyl)carbamoyl)phenylsulfonamido)-3,6,9,12-tetraoxapentadecan-15-yl)benzamido)-5-(diethylamino)phenyl)-N-(3-(trifluoromethyl)benzyl)isonicotinamide]
- IC50 (rat NaP2b (SLC34A2)): 1000 to 7940 nM
- inhibition in vivo at 50 mg/kg/day [4]: ≤ 10%
- % recovered in feces [3]: >80%

Compound: CCN(CC)c1ccc(NC(=O)c2cccc(CCCOCCOCCOCCOCCOCCOCCOCCOCCOCCC(=O)O)c2)c(-c2cc(C(=O)NCc3cccc(C(F)(F)F)c3)ccn2)c1 [Example 298, 31-(3-(4-(diethylamino)-2-(4-(3-(trifluoromethyl)benzylcarbamoyl)pyridin-2-yl)phenylcarbamoyl)phenyl)-4,7,10,13,16,19,22,25,28-nonaoxahentriacontan-1-oic acid]
- IC50 (rat NaP2b (SLC34A2)): 1000 to 7940 nM
- inhibition in vivo at 50 mg/kg/day [4]: 10 to 30%
- % recovered in feces [3]: >80%

Compound: CCN(CC)c1ccc(NC(=O)c2cccc(CCCOCCOCCOCCOCCOCCOCCC(=O)O)c2)c(-c2cc(C(=O)NCc3cccc(C(F)(F)F)c3)ccn2)c1 [Example 299, 22-(3-(4-(diethylamino)-2-(4-(3-(trifluoromethyl)benzylcarbamoyl)pyridin-2-yl)phenylcarbamoyl)phenyl)-4,7,10,13,16,19-hexaoxadocosan-1-oic acid]
- IC50 (rat NaP2b (SLC34A2)): 1000 to 7940 nM
- inhibition in vivo at 50 mg/kg/day [4]: 10 to 30%
- % recovered in feces [3]: 20-80%

Compound: CCN(CC)c1ccc(NC(=O)c2cccc(CCCOCCOCCOCCOCCOCCC(=O)O)c2)c(-c2cc(C(=O)NCc3cccc(C(F)(F)F)c3)ccn2)c1 [Example 300, 19-(3-(4-(diethylamino)-2-(4-(3-(trifluoromethyl)benzylcarbamoyl)pyridin-2-yl)phenylcarbamoyl)phenyl)-4,7,10,13,16-pentaoxanonadecan-1-oic acid]
- IC50 (rat NaP2b (SLC34A2)): 1000 to 7940 nM
- inhibition in vivo at 50 mg/kg/day [4]: ≤ 10%
- % recovered in feces [3]: 20-80%
